This is an account of results in ChEMBL document CHEMBL3232961, “Synthesis and evaluation of cyclohexane carboxylic acid head group containing isoxazole and thiazole analogs as DGAT1 inhibitors” (Eur J Med Chem, 2014).

pIC50: −log10 of the molar value.

Assay [1] deals with T1, Diacylglycerol O-acyltransferase 1 (Homo sapiens, UniProt O75907).
T1 sequence (O75907 whole entry): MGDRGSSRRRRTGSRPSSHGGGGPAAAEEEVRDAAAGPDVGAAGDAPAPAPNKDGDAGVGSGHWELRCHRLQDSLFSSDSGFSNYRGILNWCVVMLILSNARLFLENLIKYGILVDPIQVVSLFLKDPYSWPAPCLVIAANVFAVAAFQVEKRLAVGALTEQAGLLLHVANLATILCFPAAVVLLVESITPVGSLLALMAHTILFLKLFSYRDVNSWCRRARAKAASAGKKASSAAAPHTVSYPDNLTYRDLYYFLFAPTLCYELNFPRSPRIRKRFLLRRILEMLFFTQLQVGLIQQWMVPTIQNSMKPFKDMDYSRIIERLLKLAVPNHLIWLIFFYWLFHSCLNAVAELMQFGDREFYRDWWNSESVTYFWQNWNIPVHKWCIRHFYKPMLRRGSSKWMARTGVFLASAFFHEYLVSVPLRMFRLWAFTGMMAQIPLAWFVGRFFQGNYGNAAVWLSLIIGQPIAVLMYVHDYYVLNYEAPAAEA
The assay is described as follows: Inhibition of human DGAT1 using 1,2-diacylglycerol/[14C]-oleoyl CoA as substrate assessed as [14C]-triglyceride formation after 10 mins by scintillation counting analysis.

The next assay has as its system Mus musculus. The assay is described as follows: Reduction of plasma triglyceride AUC (0 to 4 hrs) in fasted Swiss mouse at 3 mg/kg, po administered 1 hr followed by bolus dose of olive oil by acute fat tolerance test relative to vehicle-treated control. In kind it is functional. Also on record: scale not given: the % may be the effect or the level left.

Turning to `O=C(Nc1ccc(C2CCN(C(=O)[C@H]3CC[C@H](C(=O)O)CC3)CC2)cc1)c1nc(-c2ccccc2)oc1C(F)(F)F`, in assay [1], the pIC50 was 6.94. In addition, in the assay with Mus musculus, the Activity amounted to 89%.

On to `O=C(Nc1ccc(-c2cnc(C(=O)N[C@H]3CC[C@H](C(=O)O)CC3)s2)cc1)Nc1ccccc1F`, for which the Activity with Mus musculus amounted to 112%.
